In test [1] the target is T1, human SLC6A19 and TMEM27 (Homo sapiens, UniProt Q695T7).
T1 construct: expressed in transfected cells
T1 sequence (Q695T7 1-634): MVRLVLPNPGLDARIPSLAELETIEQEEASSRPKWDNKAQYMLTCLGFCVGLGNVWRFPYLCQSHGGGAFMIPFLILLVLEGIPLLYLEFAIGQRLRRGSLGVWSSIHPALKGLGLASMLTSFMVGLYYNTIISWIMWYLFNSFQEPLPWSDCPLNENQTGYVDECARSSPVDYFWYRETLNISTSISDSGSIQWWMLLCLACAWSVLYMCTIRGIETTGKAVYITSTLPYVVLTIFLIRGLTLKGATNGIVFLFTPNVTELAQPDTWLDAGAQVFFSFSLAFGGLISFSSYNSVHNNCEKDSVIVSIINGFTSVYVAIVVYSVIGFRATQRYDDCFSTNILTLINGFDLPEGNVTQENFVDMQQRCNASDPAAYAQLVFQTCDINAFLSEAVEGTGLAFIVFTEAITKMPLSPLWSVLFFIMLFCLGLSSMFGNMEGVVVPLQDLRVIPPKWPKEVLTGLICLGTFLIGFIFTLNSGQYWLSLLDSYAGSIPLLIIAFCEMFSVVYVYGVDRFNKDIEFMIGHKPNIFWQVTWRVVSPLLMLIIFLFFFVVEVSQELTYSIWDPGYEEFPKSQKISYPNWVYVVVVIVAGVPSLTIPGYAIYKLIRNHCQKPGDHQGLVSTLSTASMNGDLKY
T1 sequence (Q9HBJ8 15-222 partner): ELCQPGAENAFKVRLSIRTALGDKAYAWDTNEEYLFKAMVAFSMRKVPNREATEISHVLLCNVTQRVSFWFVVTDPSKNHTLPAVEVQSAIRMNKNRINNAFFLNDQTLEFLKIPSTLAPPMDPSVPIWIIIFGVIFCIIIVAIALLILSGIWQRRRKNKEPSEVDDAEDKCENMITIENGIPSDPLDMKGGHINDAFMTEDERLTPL
Briefly: Radiolabelled (3H) leucine uptake in CHO cells with doxycycline-inducible expression of human SLC6A19 and TMEM27 (Example B-1). Format: cell-based. The following applies: CHO cells with doxycycline-inducible expression of human SLC6A19 and TMEM27, read-out: SLC6A19_Radioligand Uptake Assay IC50. Summed up:
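CHO cells were induced with doxycycline for 18 h at 37 °C, washed in HBSS, then exposed to compounds for 1 h: 8-point, 3-fold dilutions in duplicate, 0.5% DMSO final. Uptake measured by scintillation counting after 2 h shaking. Activity normalized with positive control as 0% and DMSO as 100%.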

The target in test [2] is T1, human SLC6A19 and TMEM27. The test is described as follows: 13C6,15N-isoleucine uptake in CHO cells with doxycycline-inducible expression of human SLC6A19 and TMEM27, RapidFire mass spectrometry (Example B-2). It is filed as cell-based. The following applies: read-out: SLC6A19_RapidFire Uptake Assay IC50. Summed up:
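Read-out is RapidFire mass-spec peak area of 13C6,15N-isoleucine taken up over 20 min at 37 °C, after 20 min compound pre-exposure in pH 7.2 HEPES-buffered saline. Cells: doxycycline-induced CHO co-expressing human SLC6A19 and TMEM27; compounds as duplicate 10-point 2-fold dilutions, positive control setting 0% activity.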

This note sets out measurements from patent US20240199546A1, “INHIBITORS OF SOLUTE CARRIER FAMILY 6A MEMBER 19 (SLC6A19) AND METHODS OF USE THEREOF” (Maze Therapeutics, Inc., priority 2022, published 2024).

As a reminder, the IC50 is the concentration at which inhibition is half-maximal.

Turning to `O=C(NCc1cc2cc(F)c(OCc3cscn3)cc2[nH]1)C1CC1` [Compound 136, N-((5-fluoro-6-(thiazol-4-ylmethoxy)-1H-indol-2-yl)methyl)cyclopropanecarboxamide], the IC50 stood at 83 nM at human SLC6A19 and TMEM27 [1]; 38 nM on human SLC6A19 and TMEM27 [2].
On to `CC(C)C(=O)NCc1cc2cc(Cl)c(OCc3cscn3)cc2[nH]1` [Compound 145, N-((5-chloro-6-(thiazol-4-ylmethoxy)-1H-indol-2-yl)methyl)isobutyramide], for which the IC50 on human SLC6A19 and TMEM27 [1] amounted to 73 nM; at human SLC6A19 and TMEM27 [2], 43 nM.
For the compound `CCC(=O)NCc1cc2cc(Cl)c(OCc3cscn3)cc2[nH]1` [Compound 146, N-((5-chloro-6-(thiazol-4-ylmethoxy)-1H-indol-2-yl)methyl)propionamide], the IC50 on human SLC6A19 and TMEM27 [1] amounted to 60 nM; at human SLC6A19 and TMEM27 [2] it was 36 nM.
In the case of `O=C(NCc1cc2cc(Cl)c(OCc3cscn3)cc2[nH]1)C1CC1` [Compound 147, N-((5-chloro-6-(thiazol-4-ylmethoxy)-1H-indol-2-yl)methyl)cyclopropanecarboxamide], the IC50 on human SLC6A19 and TMEM27 [1] came out at 67 nM; at human SLC6A19 and TMEM27 [2] it was 33 nM.
Turning to `Cc1cc(CCc2cc3[nH]c(CNC(=O)C4(C)CC4)cc3cc2Cl)no1` [Compound 148], the IC50 stood at 154 nM at human SLC6A19 and TMEM27 [1]; 31 nM at human SLC6A19 and TMEM27 [2].
`CC1(C(=O)NCc2cc3cc(Cl)c(CCc4cscn4)cc3[nH]2)CC1` [Compound 149, N-((5-chloro-6-(2-(thiazol-4-yl)ethyl)-1H-indol-2-yl)methyl)-1-methylcyclopropane-1-carboxamide]: the IC50 is 85 nM on human SLC6A19 and TMEM27 [1]; 34 nM on human SLC6A19 and TMEM27 [2].
As to `CC1(C(=O)NCc2cc3cc(Cl)c(CCc4ccon4)cc3[nH]2)CC1` [Compound 150, N-((5-chloro-6-(2-(isoxazol-3-yl)ethyl)-1H-indol-2-yl)methyl)-1-methylcyclopropane-1-carboxamide], the IC50 on human SLC6A19 and TMEM27 [1] is 120 nM; on human SLC6A19 and TMEM27 [2] it was 36 nM.
For `CC1(C(=O)NCc2cc3cc(Cl)c(NCc4ccon4)cc3[nH]2)CC1` [Compound 151, N-((5-chloro-6-((isoxazol-3-ylmethyl)amino)-1H-indol-2-yl)methyl)-1-methylcyclopropane-1-carboxamide], the IC50 came to 182 nM on human SLC6A19 and TMEM27 [1]; 173 nM at human SLC6A19 and TMEM27 [2].
Take `CC1(C(=O)NCc2cc3ccc(NCc4ccon4)cc3[nH]2)CC1` [Compound 152, N-((6-((isoxazol-3-ylmethyl)amino)-1H-indol-2-yl)methyl)-1-methylcyclopropane-1-carboxamide]: the IC50 at human SLC6A19 and TMEM27 [1] amounted to 531 nM; at human SLC6A19 and TMEM27 [2], 2060 nM.
Consider `Cn1ncc(COc2cc3[nH]c(CNC(=O)C4(C)CC4)cc3cc2Cl)n1` [Compound 172, N-((5-chloro-6-((2-methyl-2H-1,2,3-triazol-4-yl)methoxy)-1H-indol-2-yl)methyl)-1-methylcyclopropane-1-carboxamide], for which the IC50 at human SLC6A19 and TMEM27 [1] is 157 nM; at human SLC6A19 and TMEM27 [2], 41 nM.
As for `CC1(C(=O)NCc2cc3cc(Cl)c(OCc4cncs4)cc3[nH]2)CC1` [Compound 177, N-((5-chloro-6-(thiazol-5-ylmethoxy)-1H-indol-2-yl)methyl)-1-methylcyclopropane-1-carboxamide], the IC50 on human SLC6A19 and TMEM27 [1] came out at 307 nM; at human SLC6A19 and TMEM27 [2] it was 275 nM.
Regarding `CC1(C(=O)NCc2cc3cc(Cl)c(OCc4cscn4)cc3[nH]2)CC1` [Compound 184, N-((5-chloro-6-(thiazol-4-ylmethoxy)-1H-indol-2-yl)methyl)-1-methylcyclopropane-1-carboxamide], the IC50 on human SLC6A19 and TMEM27 [1] stood at 144 nM; at human SLC6A19 and TMEM27 [2], 59 nM.
With `CC1(C(=O)NCc2cc3ccc(OCCc4ccon4)cc3[nH]2)CC1` [Compound 190, N-((6-(2-(isoxazol-3-yl)ethoxy)-1H-indol-2-yl)methyl)-1-methylcyclopropane-1-carboxamide], the IC50 at human SLC6A19 and TMEM27 [1] was 185 nM; on human SLC6A19 and TMEM27 [2] it was 294 nM.
With `CC1(C(=O)NCc2cc3ccc(OCCc4cscn4)cc3[nH]2)CC1` [Compound 191, 1-methyl-N-((6-(2-(thiazol-4-yl)ethoxy)-1H-indol-2-yl)methyl)cyclopropane-1-carboxamide], the IC50 on human SLC6A19 and TMEM27 [1] was determined as 1680 nM; at human SLC6A19 and TMEM27 [2], 1220 nM.
Consider `CC1(C(=O)NCc2cc3ccc(OCc4c[nH]nn4)cc3[nH]2)CC1` [Compound 194, N-((6-((1H-1,2,3-triazol-4-yl)methoxy)-1H-indol-2-yl)methyl)-1-methylcyclopropane-1-carboxamide], for which the IC50 is 6780 nM on human SLC6A19 and TMEM27 [1]; 4940 nM at human SLC6A19 and TMEM27 [2].
On the same counts, the results for `CC1(C(=O)NCc2cc3ccc(SCc4ccon4)cc3[nH]2)CC1` [Compound 196, N-((6-((isoxazol-3-ylmethyl)thio)-1H-indol-2-yl)methyl)-1-methylcyclopropanecarboxamide] are 207 nM and 460 nM.
On the same counts, the results for `CC(=O)NCc1cc2cc(F)c(OCc3cc(C)on3)cc2[nH]1` [Compound 205, N-((5-fluoro-6-((5-methylisoxazol-3-yl)methoxy)-1H-indol-2-yl)methyl)acetamide] are 787 nM and 714 nM.
On the same counts, the results for `CNC(=O)NCc1cc2cc(Cl)c(OCc3cscn3)cc2[nH]1` [Compound 209, 1-((5-chloro-6-(thiazol-4-ylmethoxy)-1H-indol-2-yl)methyl)-3-methylurea] are 130 nM and 117 nM.
With `CNC(=O)NCc1cc2cc(Cl)c(OCc3cc(C)no3)cc2[nH]1` [Compound 211, 1-((5-chloro-6-((3-methylisoxazol-5-yl)methoxy)-1H-indol-2-yl)methyl)-3-methylurea], the IC50 on human SLC6A19 and TMEM27 [1] came to 87.7 nM; at human SLC6A19 and TMEM27 [2], 38.1 nM.
On to `CNC(=O)NCc1cc2cc(F)c(OCc3cscn3)cc2[nH]1` [Compound 214, 1-((5-fluoro-6-(thiazol-4-ylmethoxy)-1H-indol-2-yl)methyl)-3-methylurea], for which the half-inhibitory concentration (IC50) at human SLC6A19 and TMEM27 [1] was 152 nM; at human SLC6A19 and TMEM27 [2] it was 193 nM.
As to `CNC(=O)NCc1cc2cc(F)c(OCc3cocn3)cc2[nH]1` [Compound 215, 1-((5-fluoro-6-(oxazol-4-ylmethoxy)-1H-indol-2-yl)methyl)-3-methylurea], the IC50 stood at 977 nM on human SLC6A19 and TMEM27 [1]; 3890 nM at human SLC6A19 and TMEM27 [2].
As for `CNC(=O)NCc1cc2cc(F)c(OCc3ccon3)cc2[nH]1` [Compound 216, 1-((5-fluoro-6-(isoxazol-3-ylmethoxy)-1H-indol-2-yl)methyl)-3-methylurea], the IC50 stood at 1410 nM on human SLC6A19 and TMEM27 [1]; 3740 nM at human SLC6A19 and TMEM27 [2].
Turning to `CC(=O)NCc1cc2cc(Cl)c(OCc3cc(C)no3)cc2[nH]1` [Compound 218, N-((5-chloro-6-((3-methylisoxazol-5-yl)methoxy)-1H-indol-2-yl)methyl)acetamide], the IC50 at human SLC6A19 and TMEM27 [1] is 69.4 nM; on human SLC6A19 and TMEM27 [2], 27.5 nM.
As for `CC(=O)NCc1cc2cc(Cl)c(OCc3ccno3)cc2[nH]1` [Compound 219, N-((5-chloro-6-(isoxazol-5-ylmethoxy)-1H-indol-2-yl)methyl)acetamide], the IC50 on human SLC6A19 and TMEM27 [1] is 134 nM; on human SLC6A19 and TMEM27 [2], 103 nM.
Turning to `CC(=O)NCc1cc2cc(F)c(OCc3ccno3)cc2[nH]1` [Compound 220, N-((5-fluoro-6-(isoxazol-5-ylmethoxy)-1H-indol-2-yl)methyl)acetamide], the IC50 on human SLC6A19 and TMEM27 [1] amounted to 1550 nM; on human SLC6A19 and TMEM27 [2] it was 3480 nM.
For `CC(=O)NCc1cc2cc(Cl)c(OCc3cnn(C)n3)cc2[nH]1` [Compound 221, N-((5-chloro-6-((2-methyl-2H-1,2,3-triazol-4-yl)methoxy)-1H-indol-2-yl)methyl)acetamide], the IC50 on human SLC6A19 and TMEM27 [1] came out at 288 nM; on human SLC6A19 and TMEM27 [2], 468 nM.
With `CC(=O)NCc1cc2cc(F)c(OCc3cnn(C)n3)cc2[nH]1` [Compound 222, N-((5-fluoro-6-((2-methyl-2H-1,2,3-triazol-4-yl)methoxy)-1H-indol-2-yl)methyl)acetamide], the IC50 was found to be 3170 nM at human SLC6A19 and TMEM27 [1]; 6610 nM on human SLC6A19 and TMEM27 [2].
Consider `CC(=O)NCc1cc2cc(F)c(OCc3cc(C)no3)cc2[nH]1` [Compound 223, N-((5-fluoro-6-((3-methylisoxazol-5-yl)methoxy)-1H-indol-2-yl)methyl)acetamide], for which the IC50 on human SLC6A19 and TMEM27 [1] came to 203 nM; on human SLC6A19 and TMEM27 [2], 796 nM.
Taken in the same sequence, the figures for `CC(=O)NCc1cc2cc(Cl)c(OCc3cccc(F)n3)cc2[nH]1` [Compound 225, N-((5-chloro-6-((6-fluoropyridin-2-yl)methoxy)-1H-indol-2-yl)methyl)acetamide] were 156 nM and 80.8 nM.
